Experimental data published in patent US9901578B2, “Combination of 10-propargyl-10-deazaaminopterin and erlotinib for the treatment of non-small cell lung cancer” (Allos Therapeutics, Inc., priority 2007, dated 2018).
“And” between values parts separate entries of the source, which are not always exact repeats. Equal values may be shown once. “Also recorded” adds a separate entry of the source. Read-outs that look alike come from different tables or passages of the source. Blank lines part the entries; values can stand above or below the compound they belong to.

Experiments:
A549 cells = test: In vitro growth inhibition in A549 cells; format: cell-based, human
Protocol: The human non small lung carcinoma cell line A549 was purchased from the American Type Culture Collection (ATCC, Manassas, Va.). The cell line was cultured in Ham's F 12K medium with 2 mM L-glutamine 1.5 g/L sodium bicarbonate, supplemented with 10% fetal bovine serum and was maintained at 37° C. in a humidified atmosphere at 5% CO2 and 95% air.
An in vitro study in A549 cells was performed to compare the growth inhibition activity of PDX to that of cisplatin, paclitaxel, and docetaxel.

H460 cells = test: Short-term uptake of radiolabeled drug in H460 cells; format: cell-based, human; details: for Total uptake of radiolabeled drug: measured at 15 and 60 minutes, PDX, MTX 5 μM, Alimta 20 μM
[1] = tested on: FPGS activity (polyglutamylation); test: Polyglutamylation of radiolabeled drug in H460 cells; format: cell-based, human; details: lysates of treated H460 cells; PDX, MTX 5 μM, Alimta 20 μM
[2] = tested on: TS enzymatic activity and protein expression, and DHFR protein content; test: Activity/expression of folate-dependent enzymes in harvested tumors; format: in vivo; details: H460 and MV522 tumor xenografts
From the text: (§1) Endpoints included mean tumor growth inhibition or regression. We further evaluated activity and/or expression of folate-dependent enzymes: DHFR, thymidylate synthase (TS), and folylpolyglutamate synthase (FPGS) using kinetic assays and immunostaining in tumors harvested at the end of the study from animals treated with the antifolates or vehicle controls. In vitro studies included evaluation of reduced folate carrier (RFC) expression by quantitative RT-PCR in MV522, and H460, xenograft models. […] Inhibition of DHFR by the three antifolates was quantified in a cell-free assay against human recombinant DHFR.

[3] = Protocol: To evaluate the doses to be tested in the xenograft mouse model, non-tumor bearing female athymice nu/nu mice were treated with 2 mg/kg of PDX alone and in combination with 50 mg/kg of Tarceva® as described in Table 1. Animals were monitored daily for routine health observation. Body weight of the animals was recorded daily during the treatment phase and thereafter twice weekly for 14 days after the last treatment).
MV522 xenografts = test: MV522 non-small cell lung carcinoma human tumor xenograft; format: in vivo; details: PDX 1 mg/kg and 2 mg/kg
From the text: as §1

human recombinant DHFR = biological target: T1, human recombinant DHFR (Homo sapiens, UniProt P00374); test: DHFR inhibition in a cell-free assay; format: biochemical; details: read-out: Apparent Ki for DHFR inhibition
T1 sequence (P00374 1-187): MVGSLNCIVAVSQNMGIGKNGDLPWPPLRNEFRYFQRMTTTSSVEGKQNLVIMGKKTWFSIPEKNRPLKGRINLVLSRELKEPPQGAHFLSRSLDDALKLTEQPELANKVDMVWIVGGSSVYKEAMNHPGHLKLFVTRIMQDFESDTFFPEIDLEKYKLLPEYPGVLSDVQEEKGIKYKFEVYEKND
From the text: as §1

A549 xenograft = A549 xenograft mouse model, tumor volume; format: in vivo, athymic nu/nu mice; details: for Effect on tumor growth: 35 days
Protocol: Xenotransplant of A549 was established by subcutaneous inoculation of 5×10^6 cells on the right flank using a 21G needle in 6-8 week female athymic nude mice. A total of 75 animals were injected with A549 xenotransplant. Tumor volume was monitored twice weekly, once the established tumor reached 75-150 mm^3 (individual tumor range between 70 to 200 mm^3) the mice were randomized to the different groups as described in Table 2.
Tumor volume and body weights were measured twice weekly up to 58 days following A549 inoculation. Tumor volume was calculated using the following formula: Tumor volume=(A^2×B/2) where A is the smallest diameter and B is the largest diameter.
The treatment was initiated on the day of randomization according to the schedule described in Table 2. PDX was administered via IP injection and Tarceva® by oral gavage. PBS and 0.5% CMC were administrated to Group 1 as control vehicles by IP and PO routes, respectively.
Statistical analysis was performed using Graphpad Prism software. Comparison between control group and treatment groups was performed using 2 way ANOVA analysis.

H460 xenografts = test: H460 non-small cell lung carcinoma human tumor xenograft; format: in vivo; details: PDX 1 mg/kg and 2 mg/kg
From the text: as §1

- IC50 (A549 cells; Homo sapiens): 23.6 nM
Structure (SMILES): CC(=O)O[C@@]12CO[C@@H]1C[C@H](O)[C@@]1(C)C(=O)[C@H](O)C3=C(C)[C@@H](OC(=O)[C@H](O)[C@@H](NC(=O)OC(C)(C)C)c4ccccc4)C[C@@](O)([C@@H](OC(=O)c4ccccc4)[C@H]21)C3(C)C [Docetaxel]

Structure (SMILES): Nc1nc2[nH]cc(CCc3ccc(C(=O)N[C@@H](CCC(=O)O)C(=O)O)cc3)c2c(=O)[nH]1 [Alimta, pemetrexed]
- Total uptake of radiolabeled drug (H460 cells): decreased later
- Polyglutamylation [1]: much lesser polyglutamylation

Structure (SMILES): N.N.[Cl][Pt][Cl] [Cisplatin]
- IC50 (A549 cells): 22.4 nM

Structure (SMILES): C#CCC(Cc1cnc2nc(N)nc(N)c2n1)c1ccc(C(=O)N[C@@H](CCC(=O)O)C(=O)O)cc1 (stereo partly shown) [PDX, 10-Propargyl-10-deazaaminopterin]
- Effect on TS enzymatic activity and protein expression, and DHFR protein content [2]: down-regulated most of these endpoints
- Tolerability ([3]; PDX 2 mg/kg IP QDx5 two cycles, Tarceva 50 mg/kg PO QDx21, alone or combined): well tolerated
- Tumor growth (MV522 xenografts): dose-dependently inhibited tumor growth
- IC50 (A549 cells; Homo sapiens): 65.1 nM
- Ki (human recombinant DHFR): 45 nM
- Effect on tumor growth (A549 xenograft; PDX 1 mg/kg IP QDx5 two cycles): a trend in reducing tumor growth; also recorded: a trend toward controlling tumor growth
- Tumor volume Avg ± SD (A549 xenograft; PDX 1 mg/kg IP QDx5 two cycles, day 0): 132 ± 52. mm^3
- Tumor volume Avg ± SD (A549 xenograft; PDX 1 mg/kg IP QDx5 two cycles, day 3): 148 ± 67. mm^3
- Tumor volume Avg ± SD (A549 xenograft; PDX 1 mg/kg IP QDx5 two cycles, day 7): 176 ± 87. mm^3
- Tumor volume Avg ± SD (A549 xenograft; PDX 1 mg/kg IP QDx5 two cycles, day 10): 158 ± 93. mm^3
- Tumor volume Avg ± SD (A549 xenograft; PDX 1 mg/kg IP QDx5 two cycles, day 14): 199 ± 79. mm^3
- Tumor volume Avg ± SD (A549 xenograft; PDX 1 mg/kg IP QDx5 two cycles, day 17): 190 ± 78. mm^3
- Tumor volume Avg ± SD (A549 xenograft; PDX 1 mg/kg IP QDx5 two cycles, day 21): 179 ± 112 mm^3
- Tumor volume Avg ± SD (A549 xenograft; PDX 1 mg/kg IP QDx5 two cycles, day 24): 191 ± 105 mm^3
- Tumor volume Avg ± SD (A549 xenograft; PDX 1 mg/kg IP QDx5 two cycles, day 28): 201 ± 114 mm^3
- Tumor volume Avg ± SD (A549 xenograft; PDX 1 mg/kg IP QDx5 two cycles, day 35): 224±128 mm^3
- Effect on tumor growth (A549 xenograft; PDX 2 mg/kg IP QDx5 two cycles): a trend in reducing tumor growth; also recorded: a trend toward controlling tumor growth; also recorded: inhibited the growth of the A549 xenografts
- Tumor volume Avg ± SD (A549 xenograft; PDX 2 mg/kg IP QDx5 two cycles, day 0): 131 ± 49. mm^3
- Tumor volume Avg ± SD (A549 xenograft; PDX 2 mg/kg IP QDx5 two cycles, day 3): 133 ± 60. mm^3
- Tumor volume Avg ± SD (A549 xenograft; PDX 2 mg/kg IP QDx5 two cycles, day 7): 166 ± 75. mm^3
- Tumor volume Avg ± SD (A549 xenograft; PDX 2 mg/kg IP QDx5 two cycles, day 10): 139 ± 70. mm^3
- Tumor volume Avg ± SD (A549 xenograft; PDX 2 mg/kg IP QDx5 two cycles, day 14): 207 ± 100 mm^3
- Tumor volume Avg ± SD (A549 xenograft; PDX 2 mg/kg IP QDx5 two cycles, day 17): 174 ± 104 mm^3
- Tumor volume Avg ± SD (A549 xenograft; PDX 2 mg/kg IP QDx5 two cycles, day 21): 194 ± 114 mm^3
- Tumor volume Avg ± SD (A549 xenograft; PDX 2 mg/kg IP QDx5 two cycles, day 24): 194 ± 101 mm^3
- Tumor volume Avg ± SD (A549 xenograft; PDX 2 mg/kg IP QDx5 two cycles, day 28): 189 ± 106 mm^3
- Tumor volume Avg ± SD (A549 xenograft; PDX 2 mg/kg IP QDx5 two cycles, day 35): 210±109 mm^3
- Total uptake of radiolabeled drug (H460 cells): increased over time
- Tumor growth (H460 xenografts): dose-dependently inhibited tumor growth
- Polyglutamylation [1]: greater polyglutamylation

- IC50 (A549 cells; Homo sapiens): 109 nM
Structure (SMILES): CC(=O)O[C@H]1C(=O)[C@@]2(C)[C@H]([C@H](OC(=O)c3ccccc3)[C@]3(O)C[C@H](OC(=O)[C@H](O)[C@@H](NC(=O)c4ccccc4)c4ccccc4)C(C)=C1C3(C)C)[C@]1(OC(C)=O)CO[C@@H]1C[C@@H]2O [Paclitaxel]

Structure (SMILES): C#Cc1cccc(Nc2ncnc3cc(OCCOC)c(OCCOC)cc23)c1 [Tarceva, [6,7-bis(2-methoxyethoxy)-4-quinazolin-4-yl]-(3-ethynylphenyl)amine, reference compound]
- Tolerability ([3]; mouse, in vivo): well tolerated
- Effect on tumor growth (A549 xenograft; Tarceva 50 mg/kg PO): did not control tumor growth
- Tumor volume Avg ± SD (A549 xenograft; Tarceva 50 mg/kg PO, day 0): 131 ± 47. mm^3
- Tumor volume Avg ± SD (A549 xenograft; Tarceva 50 mg/kg PO, day 3): 166 ± 80. mm^3
- Tumor volume Avg ± SD (A549 xenograft; Tarceva 50 mg/kg PO, day 7): 216 ± 121 mm^3
- Tumor volume Avg ± SD (A549 xenograft; Tarceva 50 mg/kg PO, day 10): 214 ± 140 mm^3
- Tumor volume Avg ± SD (A549 xenograft; Tarceva 50 mg/kg PO, day 14): 249 ± 130 mm^3
- Tumor volume Avg ± SD (A549 xenograft; Tarceva 50 mg/kg PO, day 17): 271 ± 206 mm^3
- Tumor volume Avg ± SD (A549 xenograft; Tarceva 50 mg/kg PO, day 21): 270 ± 210 mm^3
- Tumor volume Avg ± SD (A549 xenograft; Tarceva 50 mg/kg PO, day 24): 294 ± 261 mm^3
- Tumor volume Avg ± SD (A549 xenograft; Tarceva 50 mg/kg PO, day 28): 308 ± 280 mm^3
- Tumor volume Avg ± SD (A549 xenograft; Tarceva 50 mg/kg PO, day 35): 358±282 mm^3 and 357 ± 282 mm^3

Structure (SMILES): CN(Cc1cnc2nc(N)nc(N)c2n1)c1ccc(C(=O)N[C@@H](CCC(=O)O)C(=O)O)cc1 [MTX, methotrexate]
- Fraction of radiolabeled drug that entered the cells (H460 cells; in comparison with PDX or Alimta): significantly smaller fraction
- Polyglutamylation [1]: much lesser polyglutamylation
